In patent US6410581B1, “Disubstituted biphenyloxazolines” (Bayer Aktiengesellschaft, priority 1997, dated 2002):

What was measured:
[1] = system: larvae of the mustard beetle (Phaedon cochleariae); assay: Phaedon larvae test; assay type: in vivo; conditions: after 7 days
Experimental: (§1) Solvent: 7 parts by weight of dimethylformamide
(§2) Emulsifier: 1 part by weight of alkylaryl polyglycol ether
To produce a suitable preparation of active compound, 1 part of weight of active compound is mixed with the stated amount of solvent and the stated amount of emulsifier, and the concentrate is diluted with water to the desired concentration.
After the desired period of time, the kill in % is determined. 100% means that all the beetle larvae have been killed; 0% means that none of the beetle larvae have been killed.

[2] = system: All larval stages of Lucilia cuprina (OP resistant); assay: Test with fly larvae/development-inhibitory activity; assay type: in vivo; conditions: concentration 100 ppm
Experimental: Test with Fly Larvae/development-inhibitory Activity
Test animals: All larval stages of Lucilia cuprina (OP resistant) [pupae and adults (without contact with the active compound)]
35 parts by weight of ethylene glycol monomethyl ether
35 parts by weight of nonylphenol polyglycol ether
To prepare a suitable formulation, 3 parts by weight of active compound are mixed with 7 parts of the abovementioned solvent-emulsifier mixture, and the resulting emulsion concentrate is diluted with water to the concentration desired in each case.
For each concentration, 30 to 50 larvae are transferred to horse meat (1 cm^3) located in glass tubes, and 500 μl of the test dilution are pipetted onto the meat. The glass tubes are placed into plastic beakers whose bottom is covered with sea sand and kept in a controlled-environment cabinet (26° C. ±1.5° C., 70% ±10% relative humidity). Larvicidal activity is checked after 24 hours and 48 hours. After the larvae have left (about 72 h), the glass tubes are removed and perforated plastic lids are placed on the beakers. After 1½ times the development period (hatching of the control flies), the hatched flies and the pupae/puparia are counted.
The criterion for the activity is the death of the treated larvae after 48 h (larvicidal effect), or inhibition of adults hatching from the pupae or inhibition of pupation. […]

[3] = log p, n-octanol/water partition coefficient by reverse phase HPLC (H2O/CH3CN); assay type: physicochemical; conditions: for chromatographic logP: n-octanol/water
[4] = system: caterpillars of the owlet moth (Spodoptera frugiperda); assay: Spodoptera test; assay type: in vivo; conditions: active compound concentration 0.1%, after 7 days
Experimental: as §1, §2
(§3) To produce a suitable preparation of active compound, 1 part by weight of active compound is mixed with the stated amount of solvent and the stated amount of emulsifier, and the concentrate is diluted with water to the desired concentration.
Cabbage leaves (Brassica oleracea) are treated by being dipped into the active compound preparation of the desired concentration and populated with caterpillars of the owlet moth (Spodoptera frugiperda) while the leaves are still moist.
(§4) After the desired period of time, the kill in % is determined. 100% means that all the caterpillars have been killed; 0% means that none of the caterpillars have been killed.

[5] = system: greenhouse red spider mite (Tetranychus urticae); assay: Tetranychus test (OP resistant/dip treatment); assay type: in vivo; conditions: active compound concentration 0.01%, after 7 days
Experimental: Tetranychus Test (OP Resistant/Dip Treatment)
Solvent: 3 parts by weight of dimethylformamide
as §2
To produce a suitable preparation of active compound, 1 part by weight of active compound is mixed with the stated amount of solvent and the stated amount of emulsifier, and the concentrate is diluted to the desired concentration using emulsifier-containing water.
Bean plants (Phaseolus vulgaris) which are heavily infested by all stages of the greenhouse red spider mite (Tetranychus urticae) are dipped into an active compound preparation of the desired concentration.
After the desired period of time, the kill in % is determined. 100% means that all the spider mites have been killed; 0% means that none of the spider mites have been killed.

[6] = system: caterpillars of the army worm (Spodoptera exigua); assay: Spodoptera exigua test; assay type: in vivo; conditions: active compound concentration 0.1%, after 6 days
Experimental: as §1, §2, §3
Cabbage leaves (Brassica oleracea) are treated by being dipped into the active compound preparation of the desired concentration and populated with caterpillars of the army worm (Spodoptera exigua) while the leaves are still moist.
After the desired period of time, the activity in % is determined. 100% means that all the caterpillars have been killed; 0% means that none of the caterpillars have been killed.

[7] = system: caterpillars of the diamond back moth (Plutella xylostella); assay: Plutella test; assay type: in vivo; conditions: active compound concentration 0.1%, after 6 days
Experimental: as §1, §2, §3
Cabbage leaves (Brassica oleracea) are treated by being dipped into the active compound preparation of the desired concentration and populated with caterpillars of the diamond back moth (Plutella xylostella) while the leaves are still moist.
as §4

[8] = system: caterpillars of the cotton bollworm (Heliothis armigera); assay: Heliothis armigera test; assay type: in vivo; conditions: active compound concentration 0.1%, in 6 days
Experimental: as §1, §2
To produce a suitable preparation of active compound, 1 part by weight of active compound is mixed with the stated amounts of solvent and emulsifier, and the concentrate is diluted with water to the desired concentration.
Soya bean shoots (Glycine max) are treated by being dipped into the active compound preparation of the desired concentration and populated with caterpillars of the cotton bollworm (Heliothis armigera) while the leaves are still moist.
as §4

[9] = system: green rice leaf hoppers (Nephotettix cincticeps); assay: Nephotettix test; assay type: in vivo; conditions: active compound concentration 1%, after 6 days
Experimental: as §1, §2, §3
Rice seedlings (Oryza sativa) are treated by being dipped into the active compound preparation of the desired concentration and populated with green rice leaf hoppers (Nephotettix cincticeps) while the seedlings are still moist.
After the desired period of time, the kill in % is determined. 100% means that all the leaf hoppers have been killed; 0% means that none of the leaf hoppers have been killed.

[10] = active compound concentration 0.01%
[11] = active compound concentration 0.1%

**Q.** With `CCCc1cc(-c2ccc(C3COC(c4c(F)cccc4F)=N3)cc2)ccc1OC(C)C` (stereo not shown) [Example I-2, 2-(2,6-Difluorophenyl)-4-(4-(4-propyl-2-oxy)-3-n-propylphenyl)phenyl-2-oxazoline] as the compound, how does the kill in % [1, 10] read?
**A.** 100%

**Q.** What about the melting point of the same compound?
**A.** 60 to 62 °C

**Q.** What does the source list for `CC(C)Oc1ccc(-c2ccc(C3COC(c4c(F)cccc4F)=N3)cc2)cc1Cl` (stereo not shown) [Example I-19]?
**A.** kill in % [1, 10]: 100%; development-inhibitory activity [2]: 100%; log p ([3]; pH 7.5): log p (pH 7.5): 4.96

**Q.** Which development-inhibitory activity [2] does the source give for `CC(C)(C)c1ccc(COc2ccc(-c3ccc(C4COC(c5c(F)cccc5F)=N4)cc3)cc2Cl)cc1` (stereo not shown) [Example I-22] here?
**A.** 100%

**Q.** Which kill in % [1, 10] does the source give for `CC(C)Oc1ccc(-c2ccc(C3COC(c4ccccc4Cl)=N3)cc2)cc1Cl` (stereo not shown) [Example I-30] here?
**A.** 100%

**Q.** And the log p ([3]; pH 7.5)?
**A.** log p (pH 7.5): 5.37

**Q.** Which log p ([3]; pH 7.5) does the source give for `C=CCc1cc(-c2ccc(C3COC(c4ccccc4Br)=N3)cc2)ccc1OC(C)C` (stereo not shown) [Example I-291] here?
**A.** log p: 6.02

**Q.** Which log p ([3]; pH 7.5) does the source give for `C=CCOc1ccc(-c2ccc(C3COC(c4ccccc4Br)=N3)cc2)cc1CC=C` (stereo not shown) [Example I-293] here?
**A.** log p: 5.66

**Q.** For `CC(C)Oc1ccc(-c2ccc(C3COC(c4ccccc4Br)=N3)cc2)cc1Cl` (stereo not shown) [Example I-302], which log p ([3]; pH 7.5) is on record?
**A.** log p: 5.42

**Q.** For `C=CCOc1ccc(-c2ccc(C3COC(c4ccccc4Br)=N3)cc2)cc1Cl` (stereo not shown) [Example I-304], which log p ([3]; pH 7.5) is on record?
**A.** log p: 5.13

**Q.** For `C=CCOc1ccc(-c2ccc(C3COC(c4ccccc4C)=N3)cc2)cc1CCC` (stereo not shown) [Example I-314], which chromatographic logP ([3]; pH 7.5) is on record?
**A.** 6.44

**Q.** For `CC(C)Oc1c(Cl)cc(-c2ccc(C3COC(c4c(F)cccc4F)=N3)cc2)cc1Cl` (stereo not shown) [Example I-342, 2-(2,6-Difluorophenyl)-4-(4-(4-(propyl-2-oxy)-3,5-dichlorophenyl)phenyl)-4,5-dihydro-oxazoline], which kill in % [1, 11] is on record?
**A.** 100%

**Q.** And the kill in % [4]?
**A.** 100%

**Q.** What about the kill in % [5] of the same compound?
**A.** 100%

**Q.** And the kill in % [6]?
**A.** 100%

**Q.** And the kill in % [7]?
**A.** 100%

**Q.** And the kill in % [8]?
**A.** 100%

**Q.** And the log p ([3]; pH 7.5)?
**A.** 5.65

**Q.** With `C=CCOc1c(Cl)cc(-c2ccc(C3COC(c4c(F)cccc4F)=N3)cc2)cc1Cl` (stereo not shown) [Example I-344] as the compound, how does the kill in % [1, 11] read?
**A.** 100%

**Q.** And the kill in % [4]?
**A.** 100%

**Q.** And the kill in % [5]?
**A.** 100%

**Q.** And the kill in % [9]?
**A.** 100%

**Q.** Which chromatographic logP ([3]; pH 7.5) does the source give for `CCCc1cc(-c2ccc(C3COC(c4c(F)cccc4F)=N3)cc2)ccc1O` (stereo not shown) [II-1, 2-(2,6-Difluorophenyl)-4-(4-(4-hydroxy-3-n-propylphenyl)phenyl)-2-oxazoline] here?
**A.** 3.77

**Q.** Which log p ([3]; pH 7.5) does the source give for `C=CCc1cc(-c2ccc(C3COC(c4c(F)cccc4F)=N3)cc2)cc(C)c1O` (stereo not shown) [II-12] here?
**A.** log p: 3.83

**Q.** Which log p ([3]; pH 7.5) does the source give for `C=CCc1cc(-c2ccc(C3COC(c4ccccc4C)=N3)cc2)cc(Cl)c1O` (stereo not shown) [II-14] here?
**A.** log p: 4.75

**Q.** For `C=CCc1cc(-c2ccc(C3COC(c4ccccc4Cl)=N3)cc2)cc(C)c1O` (stereo not shown) [II-19], which log p ([3]; pH 7.5) is on record?
**A.** log p: 4.14

**Q.** With `C=CCc1cc(-c2ccc(C3COC(c4ccccc4Br)=N3)cc2)cc(Cl)c1O` (stereo not shown) [II-21] as the compound, how does the log p ([3]; pH 7.5) read?
**A.** log p: 4.42

**Q.** Which log p ([3]; pH 7.5) does the source give for `CCc1cc(-c2ccc(C3COC(c4c(F)cccc4F)=N3)cc2)ccc1O` (stereo not shown) [II-24] here?
**A.** log p: 3.42

**Q.** Which chromatographic logP ([3]; pH 2.3) does the source give for `CCCc1cc(-c2ccc(C(CCl)NC(=O)c3c(F)cccc3F)cc2)ccc1OC(C)=O` (stereo not shown) [VI-1, 2,6-Difluoro-N-[2-chloro-1-(4-(4-acetoxy-3-n-propylphenyl)phenyl)ethyl]-benzamide] here?
**A.** 3.92
